Measurements reported in publication PMC10904736, “A c-di-GMP signaling module controls responses to iron in Pseudomonas aeruginosa” (Nature Communications, 2024).

Molecular target: T1, ImcA (PA1851) (Pseudomonas aeruginosa, UniProt Q9I2P4)
T1 construct: full-length membrane protein (6TM L47-E231, GGDEF R241-A393), expressed in E. coli BL21(DE3), DDM-solubilised, Strep-Tactin purified, homodimer
Assay: HPLC of c-di-GMP formation
Type: biochemical
Conditions: 200 µM GTP; 50 mM Tris-HCl pH 8.0, 150 mM NaCl, 0.025% DDM; 37 °C, 2 h; without IsmP

T1 sequence (Q9I2P4 entry or part of it): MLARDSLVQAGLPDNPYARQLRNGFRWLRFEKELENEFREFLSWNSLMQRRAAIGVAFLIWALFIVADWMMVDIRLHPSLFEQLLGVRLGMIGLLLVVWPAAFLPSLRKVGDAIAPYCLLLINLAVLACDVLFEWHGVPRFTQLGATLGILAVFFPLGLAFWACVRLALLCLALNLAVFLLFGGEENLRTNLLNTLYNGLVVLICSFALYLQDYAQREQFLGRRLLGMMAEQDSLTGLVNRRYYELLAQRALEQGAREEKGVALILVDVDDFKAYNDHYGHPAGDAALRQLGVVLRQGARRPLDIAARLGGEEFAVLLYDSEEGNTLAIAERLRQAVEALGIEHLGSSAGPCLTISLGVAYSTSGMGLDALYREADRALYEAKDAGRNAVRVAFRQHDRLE

## Nc1nc2c(ncn2[C@@H]2O[C@H](COP(=O)(O)OP(=O)(O)OP(=O)(O)O)[C@@H](O)[C@H]2O)c(=O)[nH]1 [GTP]
  HPLC of c-di-GMP formation: GTP was absolutely converted to c-di-GMP when GTP was incubated with ImcA alone
